Common to all, as to test: NCI-60 cell line screen, 48 h
Assay [1] has as its system ACHN renal.
In assay [2] the test system is CAKI-1 renal.
The subject of assay [3] is EKVX NSCLC.
In assay [4] the test system is HS 578T breast.
Assay [5] has as its system IGROV1 ovarian.
In assay [6] the test system is OVCAR-5 ovarian.
Assay [7] has as its system RXF 393 renal.
Assay [8] relates to SR leukemia.
Assay [9] deals with KM12 colon.
For assay [10], the system named is MDA-MB-435.

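Results reflect a 48-hour exposure of cells in 96-well plates to compound at five concentrations. GI50 marks 50% less growth. At the TGI there is no net growth.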

`COc1ccc(CN2c3ccccc3Sc3ccccc32)c(C(F)(F)F)c1`: the GI50 is 666 nM in [1]; 1530 nM in assay [2]; 1200 nM in assay [3]; 0.877 µM in [4]; 3.43 µM in assay [5]; 9.75 µM in assay [6]. Further, the values for the GI50 in assay [7] and in assay [8] were 380 nM and 483 nM, respectively. In addition, the TGI in assay [1], in assay [2], in assay [3], in [4], in assay [5] and in assay [6] was > 100 µM each time. Besides, the TGI in assay [7] is 6.55 µM; in assay [8], > 100 µM.
For the compound `Cc1ccc(S(=O)(=O)SC(C)(C)C)cc1`, the TGI is 98.1 µM in assay [1]; 41.4 µM in assay [2]; > 63.9 µM in assay [3]; > 100 µM in assay [4]; 37.3 µM in [5]; > 91.4 µM in assay [9]. Also, the TGI in assay [10] is 77.6 µM; in assay [6], > 76 µM; in assay [8], > 100 µM.
Regarding `CCOC(=O)Oc1cc2c(c(OC)c1OC)-c1ccc(OC)c(=O)cc1C(NC(C)=O)CC2` (centres undefined), the TGI in [1] is > 100 µM; in assay [2], > 100 µM; in assay [3] it was > 100 µM; in assay [4] it was > 100 µM; in assay [5] it was > 69.6 µM; in assay [9], 1.68 µM. The values for the TGI in assay [10], in assay [6] and in assay [7] were 0.0168 µM, > 100 µM and 0.564 µM, respectively.
Turning to `O=C1CC(c2cccc(F)c2)Nc2cc3c(cc21)OCO3` (centres undefined), the GI50 in assay [1] is < 10 nM; in assay [2], < 10 nM; in [10], < 10 nM; in [6], 13.4 µM. Further, the TGI was 22.6 µM in assay [1]; > 100 µM in assay [2]; > 100 µM in [3]; > 100 µM in [4]; < 0.01 µM in [10]; > 100 µM in assay [6]. Moreover, the TGI in assay [7] is 0.0943 µM.
With `O=C(/C=C\c1ccc([N+](=O)[O-])cc1)c1ccccc(=O)c1O`, the TGI in assay [1] was 2.85 µM; in [2] it was 4.61 µM; in [3] it was 11.9 µM; in assay [4], 36.8 µM; in assay [5], 4.16 µM; in [9], 2.87 µM. The TGI in [10] was 7.55 µM; in assay [6], 9.92 µM; in assay [8] it was > 100 µM.
Regarding `CCOC(=O)c1cc2c(cc1Cl)SC(=Nc1ccccc1)N(S(=O)(=O)c1ccc(Cl)cc1)S2(=O)=O`, the GI50 in assay [1] was 14500 nM; in assay [2], 15700 nM; in assay [3] it was 16600 nM; in assay [4], 17 µM; in [5], 8.11 µM; in [9] it was 15100 nM. The GI50 in [10] is 12900 nM; in assay [6], 19.4 µM; in assay [7], 11300 nM. The TGI in assay [1] was 28.8 µM; in assay [2], 33.7 µM; in assay [3], 31.8 µM; in assay [4], 52.9 µM; in assay [5] it was 22.5 µM; in assay [9], 30.4 µM. The TGI in assay [10] came to 28.4 µM; in assay [6], 36.8 µM; in assay [7], 36.1 µM.
Take `COc1ccc2c(c1)[nH]c(=O)c1c3cccc(F)c3cn21`: the GI50 in assay [1] is 57.6 nM; in [2], 13.7 nM; in assay [3] it was 1270 nM; in assay [4], 0.0299 µM; in assay [5], 0.0397 µM; in [9] it was 43.6 nM. For the same compound, the values for the GI50 in [6], in [7] and in assay [8] were 0.508 µM, 37.5 nM and 24.7 nM, respectively. The TGI in [1] was > 100 µM; in [2], 0.04 µM; in [3], > 100 µM; in assay [4], 0.0904 µM; in assay [9] it was > 100 µM; in assay [6] it was > 100 µM. Besides, the results for the TGI in assay [7] and in assay [8] were 34.1 µM and 0.594 µM, respectively.
On to `COC(=O)C1=C(O)[C@H](C(=O)OC)C2(O)C(C(=O)OC)[C@H](c3ccc(OC(=O)C(C)c4ccc(CC(C)C)cc4)cc3)C[C@@H]1[C@@H]2C(=O)OC` (some centres undefined), for which the GI50 was 12000 nM in assay [1]; > 50000 nM in assay [2]; 970 nM in assay [3]; 33 µM in [4]; 15 µM in assay [5]; 40300 nM in assay [9]. The GI50 in [10] is 12800 nM; in [6], 17 µM; in [8], 754 nM. Also, the TGI in assay [1] was 31.3 µM; in assay [2], > 50 µM; in assay [3], 6.7 µM; in assay [4], > 50 µM; in [5], 41.3 µM; in assay [9], > 50 µM. Also, the TGI in assay [10] was 28.2 µM; in assay [6], > 50 µM; in [8] it was > 50 µM.
Take `CNC(=O)c1c(NC(=O)c2ccc(C(C)(C)C)cc2)sc2c(CN(C)C)c(O)ccc12`: the GI50 was 1680 nM in [2]; 2.02 µM in [4]; 1780 nM in [9]; 1800 nM in assay [10]; 1.85 µM in assay [6]; 1670 nM in [7]. In [8], the GI50 was 990 nM. Further, the TGI in assay [2] came to 3.25 µM; in assay [4], 4.56 µM; in [9] it was 3.2 µM; in assay [10], 3.34 µM; in [6], 3.68 µM; in [7] it was 3.33 µM. This compound gave a TGI in [8] of 3.5 µM.
Regarding `Nc1ccc(C2=CC(c3ccc(Cl)cc3)N3C=CSC3=N2)cc1` (centres undefined), the GI50 in assay [1] was 2020 nM; in assay [2] it was 23100 nM; in [4], 23.5 µM; in assay [5], 2.53 µM; in assay [9], 1950 nM; in assay [10], 2430 nM. Further, the GI50 in assay [6] is 12.2 µM; in assay [7] it was 2030 nM; in assay [8], 2100 nM. Moreover, the TGI in assay [1] is 4.46 µM; in assay [2], > 100 µM; in assay [4] it was > 100 µM; in assay [5], 6.69 µM; in assay [9], 3.86 µM; in assay [10], 6.76 µM. In addition, the TGI in [6] was 34.7 µM; in assay [7], 4.18 µM; in assay [8] it was 5.51 µM.

The values are drawn from PubChem BioAssay (NCI).
